These results are taken from patent US7534898B2, “Process for producing monatin or salt thereof” (Ajinomoto Co., Inc., priority 2004, dated 2009).

For series [1] the following is noted: cited from earlier work; for intensity as a sweetener (strength of sweetness): comparison among the four optical isomers of monatin, Patent Document 5.
A short description of series [2]: solubility in ethanol (crystallization with ethanol as poor solvent). In kind it is physicochemical. As to conditions: compared with (2R,4R) monatin. An excerpt:
It is also possible to efficiently separate the steric isomers by utilizing the difference in solubility of (2S,4R) monatin and (2R,4R) monatin or of (2R,4S) monatin and (2S,4S) monatin in ethanol. […] Therefore, before crystallization of (2R,4R) monatin (salt), (2S,4R) monatin is firstly crystallized and the resulting crystals are removed. […] In case crystals of (2S,4R) monatin are previously removed by means of crystallization, it is possible to efficiently remove (2S,4R) monatin from the reaction solution when the crystallizing temperature is set at as high as about 70 to 80° C. and the crystals prepared by the crystallization are preferably filtered when they are still at high temperature. In addition, the crystals of (2R,4R) monatin (salt) prepared may be recrystallized the same as above for making the purity higher. The above is also the same in the case of (2R,4S) monatin and (2S,4S) monatin.

Molecules are shown by their SMILES.

For `N[C@@H](C[C@@](O)(Cc1c[nH]c2ccccc12)C(=O)O)C(=O)O` (stereo in doubt) [(2S,4R) monatin, 4-hydroxy-4-(3-indolylmethyl)-2-aminoglutaric acid], the “intensity as a sweetener (strength of sweetness)” value (“intensity as a sweetener” for short) in series [1] is “lower strength of sweetness”. Further, in series [2], the solubility in ethanol result is reported as “low as compared with (2R,4R) monatin”. As for `N[C@@H](C[C@@](O)(Cc1c[nH]c2ccccc12)C(=O)O)C(=O)O` (stereo in doubt) [(2R,4S) monatin, 4-hydroxy-4-(3-indolylmethyl)-2-aminoglutaric acid], the “intensity as a sweetener” value in series [1] is “far better in terms of intensity as a sweetener”. For the compound `N[C@@H](C[C@@](O)(Cc1c[nH]c2ccccc12)C(=O)O)C(=O)O` (stereo in doubt) [(2S,4S) monatin, 4-hydroxy-4-(3-indolylmethyl)-2-aminoglutaric acid], the “sweet taste relative to sucrose” value in series [1] (compared with sucrose, Patent Document 1) is “several hundred times as sweet as sucrose”. Besides, in series [1], the “intensity as a sweetener” value is “lower strength of sweetness”. Turning to `N[C@H](C[C@@](O)(Cc1c[nH]c2ccccc12)C(=O)O)C(=O)O` (stereo in doubt) [(2R,4R) monatin, 4-hydroxy-4-(3-indolylmethyl)-2-aminoglutaric acid], the “intensity as a sweetener” value in series [1] is listed as “far better in terms of intensity as a sweetener”.
